# Patent publication US20220008411A1, “TOLL-LIKE RECEPTOR 7 OR 8 AGONIST-CHOLESTEROL COMPLEX AND METHOD OF PREPARING SAME” (RESEARCH & BUSINESS FOUNDATION SUNGKYUNKWAN UNIVERSITY, priority 2019, published 2022)
# Key:
# [1] = tested on: bone marrow-derived dendritic cells (BMDCs) or bone marrow-derived macrophages (BMDMs); assay: activation of immune cells, cleavable vs uncleavable complex (ELISA); format: cell-based; conditions: given as liposome, 24 hours
# Method: Degree of activation of immune cells was confirmed using the cholesterol-resiquimod complex, in which cholesterol is not cleaved at a specific point of time as a control. […] In addition, a liquid culture was obtained, centrifuged at 490 g for 5 minutes, thereby obtaining only a supernatant, and ELISA was carried out using a BD OptEIA™ kit.
# [2] = tested on: carboxylesterase; conditions: nanoliposome, 30 units of carboxylesterase, 37° C.
# [3] = toxicity in vivo (serum cytokine, body weight); parameters: species or system C57BL/6 mouse; conditions: 25 μg/100 μL subcutaneous
# Method: In addition, the collected blood was centrifuged (4° C., 13,000 rpm, 20 min) to separate serum and blood cells, and a cytokine amount was measured through ELISA using the serum.
# [4] = tested on: B16-OVA melanoma cell line; assay: anticancer effect with OVA antigen in B16-OVA melanoma model; conditions: intratumoral injection on day 0, 3, 6 and 9
# Method: More specifically, 5×10^5 cells of a B16-OVA cell line were subcutaneously injected into the right flank of a C57BL/6 mouse, and the time when a tumor size reached approximately 50 mm^3 was set to day 0, each of phosphate-buffered saline (control), an OVA antigen (OVA), resiquimod+OVA antigen (R848+OVA), and a nanoliposome including a cholesterol-resiquimod complex, +OVA antigen (Lipo(Chol-R848)+OVA) were administered into a mouse through intratumoral injection on day 0, 3, 6 and 9. 10 μg of the OVA antigen was administered, 25 μg of resiquimod was administered, and 25 μg (based on resiquimod) of the nanoliposome including the cholesterol-resiquimod complex was administered. In addition, a mouse survival rate and a cancer size were measured.
molecule,measurement,setting,value
"CCOCc1nc2c(NC(=O)OC3CCC4(C)C(=CCC5C4CCC4(C)C(C(C)CCCC(C)C)CCC54)C3)nc3ccccc3c2n1CC(C)(C)O (stereo not drawn) [Chol-R848, cholesterol-conjugated resiquimod]",activation of immune cells,[1],effectively activates immune cells
same,cholesterol cleavage by enzyme,[2],cleaved
CCOCc1nc2c(N)nc3ccccc3c2n1CC(C)(C)O [resiquimod],body weight,[3],dramatically changing a body weight
same,cytokine amount in serum,[3],rapidly increased in serum at an early stage
"OVA antigen: ovalbumin (OVA) antigen (protein, UniProt P01012 2-386, looked up) Ovalbumin: GSIGAASMEFCFDVFKELKVHHANENIFYCPIAIMSALAMVYLGAKDSTRTQINKVVRFDKLPGFGDSIEAQCGTSVNVHSSLRDILNQITKPNDVYSFSLASRLYAEERYPILPEYLQCVKELYRGGLEPINFQTAADQARELINSWVESQTNGIIRNVLQPSSVDSQTAMVLVNAIVFKGLWEKAFKDEDTQAMPFRVTEQESKPVQMMYQIGLFRVASMASEKMKILELPFASGTMSMLVLLPDEVSGLEQLESIINFEKLTEWTSSNVMEERKIKVYLPRMKMEEKYNLTSVLMAMGITDVFSSSANLSGISSAESLKISQAVHAAHAEINEAGREVVGSAEAGVDAASVSEEFRADHPFLFCIKHIATNAVLFFGRCVSP",mouse survival,[4],no mouse surviving three weeks or more
same,cancer size,"[4]; 10 μg OVA, 25 μg resiquimod basis",dramatically increased
